For data set [1], the target named is T1, 5-hydroxytryptamine receptor 2C (Homo sapiens, UniProt P28335).
T1 sequence (P28335 whole entry): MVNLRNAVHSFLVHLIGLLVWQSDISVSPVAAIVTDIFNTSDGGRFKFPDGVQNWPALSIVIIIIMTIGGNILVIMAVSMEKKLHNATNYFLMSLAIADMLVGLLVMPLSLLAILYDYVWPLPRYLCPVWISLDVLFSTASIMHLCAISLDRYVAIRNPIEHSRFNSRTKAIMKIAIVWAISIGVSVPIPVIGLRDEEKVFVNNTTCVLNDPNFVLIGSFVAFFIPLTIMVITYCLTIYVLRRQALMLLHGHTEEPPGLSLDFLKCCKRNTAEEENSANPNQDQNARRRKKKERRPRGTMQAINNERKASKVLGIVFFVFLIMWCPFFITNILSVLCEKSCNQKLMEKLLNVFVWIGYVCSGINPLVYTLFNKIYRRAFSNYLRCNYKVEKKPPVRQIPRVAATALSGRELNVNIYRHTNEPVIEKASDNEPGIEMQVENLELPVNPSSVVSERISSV
The data set can be described thus: Displacement of [3H]mesulergine from 5HT2C receptor expressed in HEK293 cells. The class given is cell-based.

The target in data set [2] is T2, 5-hydroxytryptamine receptor 2A (Homo sapiens, UniProt P28223). Put plainly: Displacement of [3H]ketanserin from 5HT2A receptor expressed in HEK293 cells. The class given is cell-based.
T2 sequence (P28223 whole entry): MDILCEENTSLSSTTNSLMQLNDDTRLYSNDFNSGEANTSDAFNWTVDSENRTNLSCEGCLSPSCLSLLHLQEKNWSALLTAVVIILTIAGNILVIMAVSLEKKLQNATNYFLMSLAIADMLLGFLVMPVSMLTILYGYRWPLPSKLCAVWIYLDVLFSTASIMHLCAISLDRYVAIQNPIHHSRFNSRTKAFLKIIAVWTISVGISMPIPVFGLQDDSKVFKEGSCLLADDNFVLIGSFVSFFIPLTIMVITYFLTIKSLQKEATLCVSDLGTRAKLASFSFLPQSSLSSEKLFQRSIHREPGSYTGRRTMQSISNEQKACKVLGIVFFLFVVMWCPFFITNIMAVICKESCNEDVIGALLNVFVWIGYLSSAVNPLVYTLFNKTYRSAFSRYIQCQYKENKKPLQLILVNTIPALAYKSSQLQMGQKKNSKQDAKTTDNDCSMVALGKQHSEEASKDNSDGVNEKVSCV
Data set [3] addresses T3, 5-hydroxytryptamine receptor 2B (Homo sapiens, UniProt P41595). The data set can be described thus: Displacement of [3H]5-HT from 5HT2B receptor expressed in HEK293 cells. The class given is cell-based.
Data set [4] is described as follows: Blood clearance in iv dosed rat. To be noted: whole blood. The format is ADME, organism-based.
A short description of data set [5]: Volume of distribution in iv dosed rat. The class given is ADME, organism-based. As to conditions: in vivo, read-out: Vdss.
Data set [6] is described as follows: Oral bioavailability in po dosed rat. The format is ADME, organism-based. As to conditions: in vivo.
In data set [7] the target is T4, 5-hydroxytryptamine receptor 2C (Homo sapiens) (UniProt P28335).
T4 sequence (whole entry): T1 sequence (P28335 whole entry)
The data set can be described thus: Agonist activity at 5HT2C receptor expressed in HEK293 cells assessed as intracellular calcium mobilisation up to 10 uM. The class given is functional, cell-based.

Data set [8] addresses T2, 5-hydroxytryptamine receptor 2A. The data set can be described thus: Agonist activity at 5HT2A receptor expressed in HEK293 cells assessed as intracellular calcium mobilisation up to 10 uM. The class given is functional, cell-based.
The target in data set [9] is T3, 5-hydroxytryptamine receptor 2B. Put plainly: Agonist activity at 5HT2B receptor expressed in HEK293 cells assessed as intracellular calcium mobilisation up to 10 uM. The format is functional, cell-based.
Data set [10] has as its target T4, 5-hydroxytryptamine receptor 2C (Homo sapiens). The data set can be described thus: Antagonist activity at 5HT2C receptor expressed in HEK293 cells assessed as blockade of 5-hydroxytryptamine-induced intracellular calcium mobilisation. The format is functional, cell-based.

Here are results for twelve molecules from ChEMBL document CHEMBL1146272, “Isoindolone derivatives, a new class of 5-HT2C antagonists: synthesis and biological evaluation” (Bioorg Med Chem Lett, 2007).

The source made the active and inactive calls. No cut-off for these calls is given here. A value given as a limit tells only on which side of the number the result lay.

T3 sequence (P41595 whole entry): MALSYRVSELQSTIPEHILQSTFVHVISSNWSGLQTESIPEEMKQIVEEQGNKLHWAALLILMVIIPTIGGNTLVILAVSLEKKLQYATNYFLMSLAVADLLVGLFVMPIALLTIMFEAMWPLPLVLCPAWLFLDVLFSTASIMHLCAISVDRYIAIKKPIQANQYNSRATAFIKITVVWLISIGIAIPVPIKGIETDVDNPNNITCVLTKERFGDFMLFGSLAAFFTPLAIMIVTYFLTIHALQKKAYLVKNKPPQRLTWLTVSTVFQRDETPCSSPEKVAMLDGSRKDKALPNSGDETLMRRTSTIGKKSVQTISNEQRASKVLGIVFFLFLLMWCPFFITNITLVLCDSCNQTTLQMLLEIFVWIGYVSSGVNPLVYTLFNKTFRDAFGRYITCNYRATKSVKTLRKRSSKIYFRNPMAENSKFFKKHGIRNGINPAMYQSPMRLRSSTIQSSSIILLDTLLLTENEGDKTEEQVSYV

Take `COc1ccc(N2Cc3cc(Cl)c(Cl)c(C)c3C2=O)cc1OCCN1CCC(C)CC1`: the Ki in data set [1] was 2.51 nM; in data set [2] it was 398 nM; in data set [3], 100 nM. In data set [4], the clearance turned out to be 16 mL/min/kg. In addition, the Vd in [5] worked out at 6.8 L/kg. The bioavailability in data set [6] was found to be 43%. Further, the result in data set [7], in [8] and in data set [9] was inactive.

In the case of `COc1ccc(N2Cc3c(F)ccc(C(F)(F)F)c3C2=O)cc1OCCN1CCC(C)CC1`, the Ki in data set [1] is 6.31 nM; in [2], greater than 1000 nM; in data set [3], greater than 1000 nM. Further, the clearance in data set [4] worked out at 48 mL/min/kg. Besides, the Vd in data set [5] was 1.9 L/kg. In data set [6], this molecule returned a bioavailability of 4%. Further, the outcome in data set [7], in [8] and in data set [9] was inactive.

As for `COc1ccc(N2Cc3cc(C)cc(C)c3C2=O)cc1OCCN1CCC(C)CC1`, the Ki was 3.16 nM in [1], 1260 nM in data set [2] and 316 nM in data set [3]. For the same molecule, the clearance in [4] was found to be 59 mL/min/kg. Also, the Vd in data set [5] is 7.8 L/kg. The molecule further had a bioavailability in data set [6] of 10%. Also, the result in data set [7], in data set [8] and in [9] was inactive.

Take `COc1ccc(N2Cc3cc(Cl)cc(Cl)c3C2=O)cc1OCCN1CCC(C)CC1`: the Ki is 1.58 nM in data set [1], 398 nM in data set [2] and 200 nM in [3]. Besides, the clearance in data set [4] was 50 mL/min/kg. Moreover, the Vd in [5] turned out to be 5.8 L/kg. Further, the result in [7], in [8] and in data set [9] was inactive. The pKb in [10] was 8.8.

Turning to `COc1ccc(N2Cc3cccc(Br)c3C2=O)cc1OCCN1CCC(C)CC1`, the results for the inhibition constant (Ki) in data set [1], in data set [2] and in data set [3] were 0.794 nM, 631 nM and 158 nM, respectively. Moreover, the outcome in data set [7], in [8] and in [9] was inactive. Further, the pKb in [10] is 9.3.

`COc1ccc(N2Cc3cc(Cl)c(C)c(Cl)c3C2=O)cc1OCCN1CCC(C)CC1`: the Ki in [1] is 1.26 nM; in [2], 631 nM; in [3] it was 63.1 nM. In [4], the clearance is 43 mL/min/kg. For the same molecule, the Vd in data set [5] came out at 9.1 L/kg. The same molecule showed a bioavailability in data set [6] of 24%. For the same molecule, the outcome in [7], in data set [8] and in data set [9] was inactive.

`COc1ccc(N2Cc3c(Cl)cccc3C2=O)cc1OCCN1CCCCC1`: the Ki in [1] was 251 nM; in data set [2], greater than 7940 nM; in data set [3] it was greater than 794 nM. Moreover, the outcome in [7], in data set [8] and in data set [9] was inactive. Moreover, the pKb in [10] was 6.

Turning to `COc1ccc(N2Cc3ccc(Cl)cc3C2=O)cc1OCCN1CCCCC1`, the figures for the Ki in data set [1], in data set [2] and in [3] were 15.8 nM, greater than 2510 nM and greater than 1580 nM, respectively. Moreover, the result in [7], in [8] and in data set [9] was inactive. Further, the pKb in data set [10] is 7.2.

As to `COc1ccc(N2Cc3cc(Cl)ccc3C2=O)cc1OCCN1CCCCC1`, the Ki in [1] is 50.1 nM; in data set [2], greater than 6310 nM; in data set [3], greater than 10000 nM. Further, the outcome in data set [7], in data set [8] and in data set [9] was inactive. In data set [10], the pKb was found to be 6.9.

As to `COc1ccc(N2Cc3cc(Cl)c(Cl)cc3C2=O)cc1OCCN1CCC(C)CC1`, the Ki was 5.01 nM in data set [1], 501 nM in data set [2] and 200 nM in data set [3]. Moreover, the clearance in data set [4] is 16 mL/min/kg. Moreover, the Vd in data set [5] is 8.5 L/kg. For the same molecule, the bioavailability in data set [6] turned out to be 22%. Also, the outcome in data set [7], in data set [8] and in [9] was inactive.

With `COc1ccc(N2C(=O)c3c(Cl)cccc3C2C)cc1OCCN1CCC(C)CC1` (configuration not stated), the Ki in data set [1] is 1.26 nM; in data set [2], greater than 1260 nM; in data set [3], 200 nM. For the same molecule, the clearance in data set [4] was 53 mL/min/kg. Further, in data set [5], the Vd turned out to be 8.2 L/kg. Also, the outcome in [7], in data set [8] and in data set [9] was inactive.

For `COc1ccc(N2Cc3cccc(Cl)c3C2=O)cc1OCCN1CCC(C)CC1`, the results for the Ki in [1], in data set [2] and in [3] were 1.58 nM, 794 nM and 126 nM, respectively. Moreover, the result in [7], in data set [8] and in [9] was inactive. In addition, the negative-log Kb (pKb) in [10] came to 8.7.
